# Laboratory results reported in article PMC10303200 (ACS Central Science, 2023).
# Several values for one entry are separate records, joined by “and”; a condition that tells them apart may be missing. Identical values can stand only once. Like-named read-outs stand apart in the source and are kept apart here.
# Legend:
# MAA [1] = biological target: T1, MAA; assay: Isothermal titration calorimetry, 200 mM ammonium acetate, pH 6.8-6.9, 25 °C.; format: binding; conditions: SD; read-out: Kd (Literature), Table S6, determined by ITC
# T1 construct: commercial lectin mixture
# MAA [2] = biological target: T1, MAA; assay: COIN-CaR-nMS (collisional release of bound glycan, fit of eq 13) with single purified glycans, 200 mM ammonium acetate, pH 6.9.; format: binding; conditions: SD; read-out: Kd (COIN-CaR-nMS), Table S6
# Sig7-Fc = Sig7-Fc (Homo sapiens, UniProt Q9Y286); assay: COIN-CaR-nMS with purified oligosaccharides listed beside the library glycans, 200 mM ammonium acetate, pH 6.9.; format: binding; parameters: gene SIGLEC7; residues 1-345, human IgG1 Fc fusion and C-terminal His6, from CHO cells, MW 150 kDa; conditions: SD; read-out: Kd, purified oligosaccharides in Tables S12, S13, S18, S19
# Chain of Sig7-Fc (Q9Y286 1-345): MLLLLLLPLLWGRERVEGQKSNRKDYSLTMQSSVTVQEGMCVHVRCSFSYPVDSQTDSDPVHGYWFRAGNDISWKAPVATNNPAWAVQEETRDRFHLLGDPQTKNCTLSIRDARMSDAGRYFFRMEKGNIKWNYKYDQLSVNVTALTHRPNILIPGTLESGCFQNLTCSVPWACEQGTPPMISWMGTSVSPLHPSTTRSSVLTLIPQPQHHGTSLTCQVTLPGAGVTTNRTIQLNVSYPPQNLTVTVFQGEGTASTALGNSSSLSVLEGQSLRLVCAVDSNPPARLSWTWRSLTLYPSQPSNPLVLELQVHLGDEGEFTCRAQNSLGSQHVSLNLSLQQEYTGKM
# GAL-3C [3] = biological target: T2, GAL-3C (Homo sapiens, UniProt P17931); assay: direct nMS (ESI-MS) affinity measurement at known concentrations; format: binding; parameters: human Galectin-3 (GAL-3C, residues 107–250, molecular weight (MW) 16 327 Da); key: NB: No binding detected; conditions: glycans present as a mixture (G2, G5-G13); pH 6.9
# T2 sequence (P17931 107-250): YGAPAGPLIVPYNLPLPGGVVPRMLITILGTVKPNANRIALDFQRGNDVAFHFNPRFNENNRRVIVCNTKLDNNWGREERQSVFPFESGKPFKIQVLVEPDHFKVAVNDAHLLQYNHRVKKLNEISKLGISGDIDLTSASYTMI
# GAL-7 homodimer [4] = biological target: T3, GAL-7 homodimer (Homo sapiens, UniProt P47929); assay: direct nMS affinity measurement; format: binding; parameters: key: NB: No binding detected; conditions: glycans present as a mixture (G2, G5-G13); pH 6.9
# T3 construct: made in house
# T3 sequence (P47929 whole entry): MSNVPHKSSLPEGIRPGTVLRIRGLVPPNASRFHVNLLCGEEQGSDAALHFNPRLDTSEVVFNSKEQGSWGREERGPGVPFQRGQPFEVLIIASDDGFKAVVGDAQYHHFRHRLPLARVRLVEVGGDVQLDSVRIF
# GAL-3C [5] = biological target: T2, GAL-3C; assay: COIN-nMS affinity measurement; format: binding; parameters: human Galectin-3 (GAL-3C, residues 107–250, molecular weight (MW) 16 327 Da); key: NB: No binding detected; conditions: glycans present as a mixture (G2, G5-G13); average of eight measurements; pH 6.9
# GAL-7 homodimer [6] = biological target: T3, GAL-7 homodimer; assay: COIN-nMS affinity measurement; format: binding; parameters: key: NB: No binding detected; conditions: glycans present as a mixture (G2, G5-G13); average of eight measurements; pH 6.9
# [7] = biological target: T4, fCD22 (fragment of human Siglec 2) (Homo sapiens, UniProt P20273); assay: COIN-nMS affinity measurement; format: binding
# T4 construct: A fragment of human Siglec 2 (fCD22, residue 1–332, MW 37.4 kDa); made in house; host or cells: wild-type CHO cells
# T4 sequence (P20273 20-332): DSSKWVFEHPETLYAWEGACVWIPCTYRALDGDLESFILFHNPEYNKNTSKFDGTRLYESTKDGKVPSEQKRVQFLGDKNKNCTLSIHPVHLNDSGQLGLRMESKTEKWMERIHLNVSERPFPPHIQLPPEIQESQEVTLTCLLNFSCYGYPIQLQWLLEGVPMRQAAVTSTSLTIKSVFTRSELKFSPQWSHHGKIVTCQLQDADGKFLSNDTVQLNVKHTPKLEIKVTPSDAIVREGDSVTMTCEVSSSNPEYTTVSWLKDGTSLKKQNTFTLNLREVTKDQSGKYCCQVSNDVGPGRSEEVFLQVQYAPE
# [8] = biological target: T4, fCD22 (fragment of human Siglec 2); assay: direct nMS affinity measurement; format: binding; conditions: individual glycan; ammonium acetate 200 mM, pH 6.9
# [9] = biological target: T4, fCD22 (fragment of human Siglec 2); conditions: literature value; ref S3; cited from earlier work
# MAA [10] = biological target: T1, MAA; assay: COIN-CaR-nMS with purified oligosaccharides listed beside the library glycans, 200 mM ammonium acetate, pH 6.9.; format: binding; conditions: SD; read-out: Kd, purified oligosaccharides in Tables S12, S13, S18, S19
# GAL-7 [11] = biological target: T5, GAL-7 (Homo sapiens, UniProt P47929); assay: Direct native ESI-MS at known concentrations with single glycans, 200 mM ammonium acetate, pH 6.9, 25 °C.; format: binding; conditions: SD; read-out: Kd (nMS), Table S2
# T5 construct: gene LGALS7; homodimer (monomer MW 14.94 kDa)
# T5 sequence (P47929 whole entry): as the sequence (P47929 whole entry) above
# GAL-7 [12] = biological target: T5, GAL-7; assay: COIN-nMS (slow mixing in nanoESI emitter, fit of eq 12) at one glycan concentration, 200 mM ammonium acetate, pH 6.9, 25 °C.; format: binding; conditions: SD; read-out: Kd (COIN-nMS, individual experiments), Table S2
# GAL-7 [13] = biological target: T5, GAL-7; assay: COIN-nMS, global fit over several glycan concentrations, 200 mM ammonium acetate, pH 6.9, 25 °C.; format: binding; conditions: SD; read-out: Kd (COIN-nMS, global fit), Table S2
# DC-SIGN CRD [14] = biological target: T6, DC-SIGN CRD (Homo sapiens, UniProt Q9NNX6); assay: Direct native ESI-MS (submicron emitters) with a mixture of ten glycans (G2, G5, G10, G14-G20), 200 mM ammonium acetate with 2.5 mM calcium salt, pH 7.4.; format: binding; parameters: gene CD209; carbohydrate recognition domain, residues 250-404, MW 17 794 Da; conditions: SD, n = 6; read-out: Kd (nMS), Table S5
# T6 sequence (Q9NNX6 250-404): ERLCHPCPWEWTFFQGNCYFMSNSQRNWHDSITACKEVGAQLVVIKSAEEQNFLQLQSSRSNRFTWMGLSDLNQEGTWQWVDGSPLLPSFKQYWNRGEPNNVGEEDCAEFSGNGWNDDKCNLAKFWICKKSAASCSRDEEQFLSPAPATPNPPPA
# GAL-3C [15] = biological target: T2, GAL-3C; assay: COIN-nMS with a mixture of ten glycans (G2, G5-G13), 200 mM ammonium acetate, pH 6.9.; format: binding; parameters: gene LGALS3; C-terminal carbohydrate recognition domain fragment, residues 107-250; conditions: SD, n = 8; read-out: Kd (COIN-nMS), Table S3
# GAL-3C [16] = biological target: T2, GAL-3C; assay: Literature reference values quoted in the results table, conditions not restated.; format: binding; parameters: gene LGALS3; C-terminal carbohydrate recognition domain fragment, residues 107-250; conditions: SD; read-out: Kd (Literature), Table S2; cited from earlier work
# GAL-7 [17] = biological target: T5, GAL-7; assay: COIN-nMS of the GAL-7 homodimer with a mixture of ten glycans (G2, G5-G13), 200 mM ammonium acetate, pH 6.9.; format: binding; conditions: SD, n = 8; read-out: Kd (COIN-nMS), Table S4
# GAL-3C [18] = biological target: T2, GAL-3C; assay: COIN-nMS, global fit over several glycan concentrations, 200 mM ammonium acetate, pH 6.9, 25 °C.; format: binding; parameters: gene LGALS3; C-terminal carbohydrate recognition domain fragment, residues 107-250; conditions: SD; read-out: Kd (COIN-nMS, global fit), Table S2
# GAL-3C [19] = biological target: T2, GAL-3C; assay: Direct native ESI-MS with a mixture of ten glycans (G2, G5-G13), 200 mM ammonium acetate, pH 6.9.; format: binding; parameters: gene LGALS3; C-terminal carbohydrate recognition domain fragment, residues 107-250; conditions: SD, n = 8; read-out: Kd (nMS), Table S3
# GAL-3C [20] = biological target: T2, GAL-3C; assay: Direct native ESI-MS at known concentrations with single glycans, 200 mM ammonium acetate, pH 6.9, 25 °C.; format: binding; parameters: gene LGALS3; C-terminal carbohydrate recognition domain fragment, residues 107-250; conditions: SD; read-out: Kd (nMS), Table S2
# DC-SIGN CRD [21] = biological target: T6, DC-SIGN CRD; assay: COIN-nMS (submicron emitters) with a mixture of ten glycans (G2, G5, G10, G14-G20), 200 mM ammonium acetate with 2.5 mM calcium salt, pH 7.4.; format: binding; parameters: gene CD209; carbohydrate recognition domain, residues 250-404, MW 17 794 Da; conditions: SD, n = 6; read-out: Kd (COIN-nMS), Table S5
# GAL-3C [22] = biological target: T2, GAL-3C; assay: COIN-nMS (slow mixing in nanoESI emitter, fit of eq 12) at one glycan concentration, 200 mM ammonium acetate, pH 6.9, 25 °C.; format: binding; parameters: gene LGALS3; C-terminal carbohydrate recognition domain fragment, residues 107-250; conditions: SD; read-out: Kd (COIN-nMS, individual experiments), Table S2
# GAL-7 [23] = biological target: T5, GAL-7; assay: Direct native ESI-MS of the GAL-7 homodimer with a mixture of ten glycans (G2, G5-G13), 200 mM ammonium acetate, pH 6.9.; format: binding; conditions: SD, n = 8; read-out: Kd (nMS), Table S4
compound,measurement,setting,value
"CC(=O)N[C@H]1[C@H]([C@H](O)[C@H](O)CO)O[C@@](O[C@H]2[C@@H](O)[C@@H](CO)O[C@@H](O[C@H]3[C@H](O)[C@@H](O)C(O)O[C@@H]3CO)[C@@H]2O)(C(=O)O)C[C@@H]1O (stereo partly drawn) [G22, 3SL, 3'-sialyllactose, α-D-Neu5Ac-(2→3)-β-D-Gal-(1→4)-D-Glc]",Kd,MAA [1],3.6 µM
same,Kd,MAA [2],3.5 µM
same,Kd,Sig7-Fc,277 µM
β-D-Gal(1→3)-[α-L-Fuc(1→4)]-β-D-GlcNAc(1→3)-β-D-Gal(1→4)-[α-L-Fuc(1→3)]-β-D-Glc [Glycan G11],Kd (nMS),GAL-3C [3],NB
same,Kd (nMS),GAL-7 homodimer [4],NB
same,Kd (COIN-nMS),GAL-3C [5],NB and do not bind
same,Kd (COIN-nMS),GAL-7 homodimer [6],NB and do not bind
"CC(=O)NC1C(O)OC(CO)C(OC2OC(CO)C(OC3OC(COC4OC(CO)C(O)C(O)C4OC4OC(CO)C(OC5OC(COC6(C(=O)O)CC(O)C(NC(C)=O)C(C(O)C(O)CO)O6)C(O)C(O)C5O)C(O)C4NC(C)=O)C(O)C(OC4OC(CO)C(O)C(O)C4OC4OC(CO)C(OC5OC(COC6(C(=O)O)CC(O)C(NC(C)=O)C(C(O)C(O)CO)O6)C(O)C(O)C5O)C(O)C4NC(C)=O)C3O)C(O)C2NC(C)=O)C1O [Glycan G4, [α-D-Neu5Ac-(2→6)-β-D-Gal-(1→4)-β-D-GlcNAc-(1→2)-α-D-Man-(1→3)]-[α-D-Neu5Ac-(2→6)-β-D-Gal-(1→4)-β-D-GlcNAc-(1→2)-α-D-Man-(1→6)]-β-D-Man(1→4)-β-D-GlcNAc-(1→4)-D-GlcNAc]",Kd,"[7]; global fit of data sets at 30, 50, 75 µM glycan, read-out: Kd (COIN-nMS, global fit)",23.5 ± 1.4 µM
same,Kd,"[7]; glycan concentration 30 µM, pH 6.9, read-out: Kd (COIN-nMS, individual experiments)",25.4 ± 2.2 µM
same,Kd,"[7]; glycan concentration 50 µM, pH 6.9, read-out: Kd (COIN-nMS, individual experiments)",37.5 ± 0.5 µM
same,Kd,"[7]; glycan concentration 75 µM, pH 6.9, read-out: Kd (COIN-nMS, individual experiments)",23.4 ± 0.7 µM
same,Kd,[8],13.1 ± 0.6 µM
same,Kd,[9],13.1 ± 0.6 µM
"CC(=O)N[C@H]1[C@H]([C@H](O)[C@H](O)CO)O[C@@](O[C@H]2[C@@H](O)[C@@H](CO)O[C@@H](O[C@H]3[C@H](O)[C@@H](NC(C)=O)C(O)O[C@@H]3CO)[C@@H]2O)(C(=O)O)C[C@@H]1O (stereo partly drawn) [G25, 3SLN, α-D-Neu5Ac-(2→3)-β-D-Gal-(1→4)-D-GlcNAc]",Kd,MAA [10],2140 nM
same,Kd,Sig7-Fc,267 µM
"CC(=O)N[C@H]1[C@H](O[C@H]2[C@@H](O)[C@@H](CO)O[C@@H](O[C@H]3[C@H](O[C@@H]4O[C@@H](C)[C@@H](O)[C@@H](O)[C@@H]4O)[C@@H](O)C(O)O[C@@H]3CO)[C@@H]2O)O[C@H](CO)[C@@H](O[C@@H]2O[C@H](CO)[C@H](O)[C@H](O)[C@H]2O)[C@@H]1O[C@@H]1O[C@@H](C)[C@@H](O)[C@@H](O)[C@@H]1O (stereo partly drawn) [G3, Gal-(1→4)-[α-L-Fuc(1→3)]-β-D-GlcNAc-(1→3)-β-D-Gal(1→4)[α-L-Fuc(1→3)]-D-Glc]",Kd,GAL-7 [11],518 µM
same,Kd,GAL-7 [12],524 µM and 507 µM and 537 µM
same,Kd,GAL-7 [13],521 µM
"C[C@@H]1O[C@@H](O[C@H]2[C@H](O[C@H]3[C@H](O)[C@@H](O)C(O)O[C@@H]3CO)O[C@H](CO)[C@H](O)[C@@H]2O)[C@@H](O)[C@H](O)[C@@H]1O (stereo partly drawn) [G2, α-L-Fuc-(1→2)-β-D-Gal-(1→4)-D-Glc (2'-fucosyllactose)]",Kd,DC-SIGN CRD [14],2.1 mM
same,Kd,GAL-3C [15],156 µM
same,Kd,GAL-3C [16],47.6 µM
same,Kd,GAL-7 [17],241 µM
same,Kd,GAL-3C [18],23.2 µM
same,Kd,GAL-3C [19],166 µM
same,Kd,GAL-3C [20],26.6 µM
same,Kd,DC-SIGN CRD [21],660 µM
same,Kd,GAL-3C [22],27 µM and 24.8 µM and 28 µM
same,Kd,GAL-7 [23],237 µM
